The subject of data set [1] is 4T1 breast cancer cell line. Kind of data set: Seahorse glycostress assay (ECAR). Format: cell-based, murine. Particulars: 4T1 cells, 6 h; for glycolytic inhibitory properties compared to NaDCA: 200 μM vs NaDCA 600 μM; for glycolysis inhibition (ECAR): compared with control group. The source says: FIGS. 3A-3C show cellular glycolysis inhibition by Mito-SilylDCA. Glycolytic inhibition efficacy of Mito-SilylDCA was investigated along with the components used for synthesizing Mito-SilylDCA. (FIG. 3A) Chemical structures of TPP-(CH2)5—COOH), methoxyl(octadecyldimethyl)silane, sodium dichloroacetate (NaDCA), Mito-DCA, and Mito-SilylDCA. (FIG. 3B) Extracellular acidification rate (ECAR) measured in 4T1, murine breast cancer cell line, upon treatment with the compounds mentioned in A. The cells were pre-treated with the test articles at the following concentration: TPP-(CH2)5—COOH (200 μM), methoxy (octadecyldimethyl)silane (200 μM), NaDCA (600 μM), Mito-DCA (200 μM), or Mito-Silyl-DCA (200 μM), for 6 h. Port injections for the seahorse glycostress assay included glucose (10 mM) in port A, oligomycin (1 μM) in port B, and 2-DG (50 mM) in port C. (FIG. 3C) Graphical representation quantifying the change in glycolysis, glycolytic capacity, and glycolytic reserve parameters upon treatment with test articles. The data in FIG. 3C was generated as an average from 3 independent biological replicates. The statistical significance between the treatment groups was measured by ordinary one-way analysis of variance (ANOVA) using multiple comparison.
Cellular glycolysis inhibition by Mito-SilylDCA. Glycolysis inhibitory efficacy of Mito-Silyl-DCA was investigated in 4T1 breast cancer cell line which is known to be aggressive and highly glycolytic in nature with an overexpression of PDK1.^6 The Seahorse glycostress assay was performed to understand the metabolic fluxes of glycolysis. The 4T1 cells grown in normoxia were treated with TPP-(CH2)5—COOH) (200 μM), methoxyl(octadecyldimethyl)silane (200 μM), NaDCA (600 μM), Mito-DCA (200 μM), or Mito-Silyl-DCA (200 μM) for 6 h followed by washing and returning the cells to a glucose-free medium (FIG. 3A). The extracellular acidification rate (ECAR) traces were then monitored in response to the sequential administration of glucose, oligomycin, and 2-deoxy-D-glucose (2-DG) to assess glycolysis, glycolytic capacity, and glycolytic reserve, respectively. […] The data shown here are average from three independent biological replicates.
Glycolysis inhibition in highly glycolytic cells. This example documented inhibition of glycolysis in 4T1 cells by Mito-SilylDCA using Seahorse glycostress assay (FIG. 3B). The Seahorse glycostress assay was performed to check the metabolic fluxes of glycolysis. 4T1 cells were treated with TPP-hexanoic acid (200 μM), methoxyl(octadecyldimethyl)silane (200 μM), sodium dichloroacetate (DCA) (600 μM), Mito-DCA (200 μM), or Mito-SilylDCA (200 μM) for 6 h followed by washout and returned to glycose-free medium. The extracellular acidification rate (ECAR) was monitored in response to the sequential administration of glucose, oligomycin, and 2-deoxy-D-glucose (2-DG) to assess glycolysis, glycolytic capacity, and glycolytic reserve, respectively (FIG. 3C).

Data set [2] can be described thus: Stability at different pH values by HPLC and LC-MS (Example 1). It counts as physicochemical. The following applies: for degradation / stability at acidic pH: acidic pH (4.0); for stability in alkaline conditions: alkaline conditions (pH 9.5); for stability in alkaline conditions / hydrolysis in neutral conditions: DMF-water (2/1, v/v), room temperature; for hydrolysis in neutral conditions: neutral conditions (pH 7.4). Here is the method: FIGS. 2A-2B. Stability of Mito-SilylDCA at different pH values. Traces of HPLC plots of (FIG. 2A) Mito-SilylDCA and (FIG. 2B) Mito-DCA in solutions of different pH values along with plots of percent of the compound remained with time. A solution of Mito-SilylDCA or Mito-DCA in DMF-water (2/1, v/v) was incubated for different times (12 h, 24 h, and 48 h) at different pH environments (4.0, 7.4, and 9.5) at room temperature.
Stability of Mito-SilylDCA. A combination of HPLC and LC-MS analytical techniques were employed to understand the stability of Mito-SilylDCA in different physiological environments. A solution of Mito-SilylDCA or Mito-DCA in DMF-water (2/1, v/v) was incubated for 12, 24, and 48 h at different pH environments of 4.0, 7.4, and 9.5 at room temperature and the degradation behavior of the compounds was analyzed with HPLC and LC-MS (FIGS. 2A and 2B). […] After 12 h, more than 60% of compounds are decomposed at pH 7.4, which should be due to the hydrolysis of DCA and the silyl chain. […] Both Mito-DCA and Mito-SilylDCA were unstable in alkaline conditions and the compounds decomposed easily. […] The better stability of Mito-SilylDCA compared to Mito-DCA would be beneficial for the long-term storage and further application in biological environment.

The conditions of data set [3]: mouse, in vivo.
Description: Thus, the experiment investigated the efficacy of T-Mito-SilylDCA-NPs in an in vivo mouse model in combination with a cisplatin prodrug, Platin-M^20-21. […] Thus for this study, luciferase tagged MDA-MB-231BR^Luc cells in Balb/c nude mice were used. The experiment implanted MDA-MB-231BR^Luc cells in the right flank of N=7 female Balb/c nude mice (FIG. 5A). […] Once the tumors were established, these animals were treated with a combination of T-Platin-M-NP and T-Mito-SilylDCA-NP in a sequential manner to inhibit first OXPHOS with T-Platin-M-NP^20 and simultaneous inhibition of resulting glycolysis T-Mito-SilylDCA-NP. This study included two groups: Group 1, saline with n=3 animals and group 2, combination of T-Platin-M-NPs and T-Mito-SilylDCA-NPs with n=4 animals (FIG. 5A). The tumor bearing animals were treated with saline or combination therapeutics for 4 weeks following a biweekly treatment regimen which involved tail i.v injections of 10 mg/kg dose of T-Platin-M-NP with respect to Platin-M 24 h prior to 30 mg/kg dose of T-Mito-Silyl-DCA-NP with respect to Mito-SilylDCA. […] All the images were taken at the same aperture and field of view was kept at 22.4 cm. […]
The present study administered T-Mito-SilylDCA to mice via intravenous injection and quantified the accumulation of NPs using ICP-MS analyses.
Data set [4] in a line: Chemical stability at different pH by HPLC and LC-MS (Example 2). It counts as physicochemical. Particulars: DMF/water (1/1, v/v), 24 h, pH 4.5, 5.5, 6.5, 7.4, 8.5, room temperature. Here is the method:
Stability of Mito-SilylDCA. With Mito-SilylDCA in hand, the chemical stability was checked to ensure the efficacy of drug in different physiological environments. A mixed solution of Mito-SilylDCA in DMF/water (1/1, v/v) was incubated for 24 h in different pH environment (4.5, 5.5, 6.5, 7.4, 8.5) at room temperature. Then the solutions were measured with HPLC and LC-MS to check the degradation behavior of the compounds.

Entries after “also recorded” stand apart in the source; their conditions may differ.

As to `O=C(CCCCC[P+](c1ccccc1)(c1ccccc1)c1ccccc1)NC(COC(=O)C(Cl)Cl)(COC(=O)C(Cl)Cl)COC(=O)C(Cl)Cl` [Mito-DCA, reference compound], in data set [1], the “glycolytic inhibitory properties compared to NaDCA” value was “significantly higher”. The “glycolysis inhibition (ECAR)” value in data set [1] (200 μM) was “significant glycolysis inhibition”. Besides, in data set [2], the “degradation / stability at acidic pH” value was “relatively slow degradation”, the “stability in alkaline conditions” value is “unstable” and the “hydrolysis in neutral conditions” value is “hydrolyzed in a short time”.
Take `CCCCCCCCCCCCCCCCCC[Si](C)(C)OCC(COC(=O)C(Cl)Cl)(COC(=O)C(Cl)Cl)NC(=O)CCCCC[P+](c1ccccc1)(c1ccccc1)c1ccccc1` [Mito-SilylDCA]: in data set [3], the “accumulation in the tumor” value is reported as “a significant portion of Mito-SilylDCA accumulated in the tumor”; the “biodistribution: organs in which present” value is “liver, tumor mass, brain, kidney, and spleen”. For the same compound, the “glycolytic inhibitory properties compared to NaDCA” value in data set [1] is listed as “significantly higher”. Also, in data set [1] (200 μM), the “glycolysis inhibition capability compared to Mito-DCA” value is recorded as “not significantly decreased” and the “glycolysis inhibition (ECAR)” value is on record as “significant inhibition of glycolysis”. Moreover, the chemical stability entry in data set [4] is “stable in neural and weak acidic conditions”. Besides, in data set [2] (acidic conditions (pH 4.0), period of 24 h), the “decomposition compared with Mito-DCA” value is on record as “slower than Mito-DCA”. Further, in data set [2], the “degradation / stability at acidic pH” value is listed as “relatively slow degradation; also recorded: most stable at an acidic pH”, the “stability in alkaline conditions” value is on record as “unstable” and the “hydrolysis in neutral conditions” value was “hydrolyzed in a short time”.
For the compound `O=C(O)CCCCC[P+](c1ccccc1)(c1ccccc1)c1ccccc1.[Br-]` [TPP-(CH2)5—COOH), (5-carboxypentyl)triphenylphosphonium bromide, reference compound], the “glycolysis inhibition (ECAR)” value in data set [1] (200 μM) is “No detectable changes in glycolysis levels”.
On to `CCCCCCCCCCCCCCCCCC[Si](C)(C)OC` [methoxyl(octadecyldimethyl)silane, reference compound], for which, in data set [1] (200 μM), the “glycolysis inhibition (ECAR)” value is recorded as “No detectable changes in glycolysis levels”.

The values above are taken from patent US20260232707A1, “METABOLIC INHIBITORS AND METHODS OF MAKING AND USING THEREOF” (UNIVERSITY OF MIAMI, priority 2023, published 2026).
